From PMC6044636 (ACS Omega, 2016)

Target: A2AR (Homo sapiens, UniProt P29274)
Format: binding

Sequence of A2AR (P29274 whole entry): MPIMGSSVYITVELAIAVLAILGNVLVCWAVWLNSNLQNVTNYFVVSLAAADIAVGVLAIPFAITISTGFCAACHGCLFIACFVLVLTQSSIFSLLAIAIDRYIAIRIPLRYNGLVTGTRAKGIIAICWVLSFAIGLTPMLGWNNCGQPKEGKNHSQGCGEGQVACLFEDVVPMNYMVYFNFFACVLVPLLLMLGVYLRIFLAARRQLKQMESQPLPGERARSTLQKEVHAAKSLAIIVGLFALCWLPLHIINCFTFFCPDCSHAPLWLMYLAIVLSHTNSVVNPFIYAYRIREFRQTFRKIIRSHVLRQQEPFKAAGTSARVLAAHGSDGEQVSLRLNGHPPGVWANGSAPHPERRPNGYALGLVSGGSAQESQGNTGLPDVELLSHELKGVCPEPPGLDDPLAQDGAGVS

Ki: 1.2 nM
Structure (SMILES): Cn1c(-n2nccn2)nc2c(N)nc(CCC3CCCCC3)nc21 [Compound 8, 2-(2-Cyclohexylethyl)-9-methyl-8-(2H-1,2,3-triazol-2-yl)-9H-purin-6-amine]
